Measured values taken from US20070117770A1, “Human ribosomal DNA (rDNA) and ribosomal RNA (rRNA) nucleic acids and uses thereof” (Cylene Pharmaceuticals, Inc., priority 2005, published 2007).

How the values were obtained:
Assay in all cases: Protein kinase inhibition assay
Assay type in all cases: biochemical
JNK3(h) = JNK3(h) (Homo sapiens, UniProt P53779); settings: read-out: percent residual activity of JNK3(h)
Protocol: (§1) Certain compounds were tested for activity in protein kinase inhibition assays. All substrates were dissolved and diluted to working stocks in de-ionized water, apart from histone H1 (10× working stock in 20 mM MOPS pH 7.0), PDKtide (10× working stock in 50 mM Tris pH 7.0) ATF2 (which is typically stored at a 20× working stock in 50 mM Tris pH 7.5, 150 mM NaCl, 0.1 mM EGTA, 0.03% Brij-35, 50% glycerol, 1 mM benzamidine, 0.2 mM PMSF and 0.1% R-mercaptoethanol), KKLNRTLSFAEPG (SEQ ID NO:203) and RRRLSFAEPG (SEQ ID NO:204) (50 mM HEPES pH 7.4) and GGEEEEYFELVKKKK (SEQ ID NO:205) (20 mM MOPS pH 7.0). All kinases were pre-diluted to a 10× working concentration prior to addition into the assay. The composition of the dilution buffer for each kinase is detailed below.
In a final reaction volume of 25 μl, JNK3 (h) (5-10 mU) is incubated with 50 mM Tris pH 7.5, 0.1 mM EGTA, 0.1% R-mercaptoethanol, 250 μM peptide, 10 mM MgAcetate and [gamma-33P-ATP] (specific activity approx. 500 cpm/pmol, concentration as required). The reaction is initiated by the addition of the MgATP mix. After incubation for 40 minutes at room temperature, the reaction is stopped by the addition of 5 μl of a 3% phosphoric acid solution. 10 μl of the reaction is then spotted onto a P30 filtermat and washed three times for 5 minutes in 75 mM phosphoric acid and once in methanol prior to drying and scintillation counting.

PDGFRβ(h) = PDGFRβ(h) (Homo sapiens, UniProt P09619); settings: read-out: percent residual activity of PDGFRβ(h)
Chain of PDGFRβ(h) (P09619 33-1106): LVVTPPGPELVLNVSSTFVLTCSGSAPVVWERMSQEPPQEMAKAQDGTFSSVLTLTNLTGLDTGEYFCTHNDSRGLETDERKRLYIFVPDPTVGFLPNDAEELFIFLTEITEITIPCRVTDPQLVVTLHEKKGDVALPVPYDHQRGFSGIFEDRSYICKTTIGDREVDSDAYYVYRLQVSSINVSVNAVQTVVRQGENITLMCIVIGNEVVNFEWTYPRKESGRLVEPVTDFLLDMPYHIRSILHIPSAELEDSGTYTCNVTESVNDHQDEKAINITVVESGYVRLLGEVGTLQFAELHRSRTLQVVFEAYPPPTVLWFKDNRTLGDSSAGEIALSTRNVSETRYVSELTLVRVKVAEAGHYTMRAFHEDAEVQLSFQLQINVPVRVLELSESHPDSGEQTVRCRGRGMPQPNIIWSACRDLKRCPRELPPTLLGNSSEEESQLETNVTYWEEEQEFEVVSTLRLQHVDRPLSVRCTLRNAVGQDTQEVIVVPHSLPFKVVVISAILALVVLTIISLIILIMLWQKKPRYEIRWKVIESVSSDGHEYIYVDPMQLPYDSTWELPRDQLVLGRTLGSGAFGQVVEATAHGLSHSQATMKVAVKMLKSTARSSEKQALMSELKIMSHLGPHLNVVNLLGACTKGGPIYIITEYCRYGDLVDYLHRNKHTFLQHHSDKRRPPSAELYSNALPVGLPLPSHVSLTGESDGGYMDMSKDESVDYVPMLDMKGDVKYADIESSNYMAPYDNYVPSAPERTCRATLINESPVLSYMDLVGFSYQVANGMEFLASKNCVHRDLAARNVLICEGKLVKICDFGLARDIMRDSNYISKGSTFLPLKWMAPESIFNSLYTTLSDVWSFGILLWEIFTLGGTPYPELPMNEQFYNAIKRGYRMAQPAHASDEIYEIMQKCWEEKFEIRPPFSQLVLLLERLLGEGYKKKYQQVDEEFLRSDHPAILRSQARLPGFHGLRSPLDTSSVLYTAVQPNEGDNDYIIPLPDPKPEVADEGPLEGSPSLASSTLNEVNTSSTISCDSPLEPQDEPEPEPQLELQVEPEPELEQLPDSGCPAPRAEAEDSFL
Protocol: as §1
(§2) In a final reaction volume of 25 μl, PDGFRβ (h) (5-10 mU) is incubated with 8 mM MOPS pH 7.0, 0.2 mM EDTA, 0.1 mg/ml poly(Glu, Tyr) 4:1, 10 mM MnCl2, 10 mM MgAcetate and [gamma-33P-ATP] (specific activity approx. 500 cpm/pmol, concentration as required). The reaction is initiated by the addition of the MgATP mix. After incubation for 40 minutes at room temperature, the reaction is stopped by the addition of 5 μl of a 3% phosphoric acid solution. 10 μl of the reaction is then spotted onto a Filtermat A and washed three times for 5 minutes in 75 mM phosphoric acid and once in methanol prior to drying and scintillation counting.

ROCK-I(h) = ROCK-I(h) (Homo sapiens, UniProt Q13464); settings: read-out: percent residual activity of ROCK-I(h)
Chain of ROCK-I(h) (Q13464 whole entry): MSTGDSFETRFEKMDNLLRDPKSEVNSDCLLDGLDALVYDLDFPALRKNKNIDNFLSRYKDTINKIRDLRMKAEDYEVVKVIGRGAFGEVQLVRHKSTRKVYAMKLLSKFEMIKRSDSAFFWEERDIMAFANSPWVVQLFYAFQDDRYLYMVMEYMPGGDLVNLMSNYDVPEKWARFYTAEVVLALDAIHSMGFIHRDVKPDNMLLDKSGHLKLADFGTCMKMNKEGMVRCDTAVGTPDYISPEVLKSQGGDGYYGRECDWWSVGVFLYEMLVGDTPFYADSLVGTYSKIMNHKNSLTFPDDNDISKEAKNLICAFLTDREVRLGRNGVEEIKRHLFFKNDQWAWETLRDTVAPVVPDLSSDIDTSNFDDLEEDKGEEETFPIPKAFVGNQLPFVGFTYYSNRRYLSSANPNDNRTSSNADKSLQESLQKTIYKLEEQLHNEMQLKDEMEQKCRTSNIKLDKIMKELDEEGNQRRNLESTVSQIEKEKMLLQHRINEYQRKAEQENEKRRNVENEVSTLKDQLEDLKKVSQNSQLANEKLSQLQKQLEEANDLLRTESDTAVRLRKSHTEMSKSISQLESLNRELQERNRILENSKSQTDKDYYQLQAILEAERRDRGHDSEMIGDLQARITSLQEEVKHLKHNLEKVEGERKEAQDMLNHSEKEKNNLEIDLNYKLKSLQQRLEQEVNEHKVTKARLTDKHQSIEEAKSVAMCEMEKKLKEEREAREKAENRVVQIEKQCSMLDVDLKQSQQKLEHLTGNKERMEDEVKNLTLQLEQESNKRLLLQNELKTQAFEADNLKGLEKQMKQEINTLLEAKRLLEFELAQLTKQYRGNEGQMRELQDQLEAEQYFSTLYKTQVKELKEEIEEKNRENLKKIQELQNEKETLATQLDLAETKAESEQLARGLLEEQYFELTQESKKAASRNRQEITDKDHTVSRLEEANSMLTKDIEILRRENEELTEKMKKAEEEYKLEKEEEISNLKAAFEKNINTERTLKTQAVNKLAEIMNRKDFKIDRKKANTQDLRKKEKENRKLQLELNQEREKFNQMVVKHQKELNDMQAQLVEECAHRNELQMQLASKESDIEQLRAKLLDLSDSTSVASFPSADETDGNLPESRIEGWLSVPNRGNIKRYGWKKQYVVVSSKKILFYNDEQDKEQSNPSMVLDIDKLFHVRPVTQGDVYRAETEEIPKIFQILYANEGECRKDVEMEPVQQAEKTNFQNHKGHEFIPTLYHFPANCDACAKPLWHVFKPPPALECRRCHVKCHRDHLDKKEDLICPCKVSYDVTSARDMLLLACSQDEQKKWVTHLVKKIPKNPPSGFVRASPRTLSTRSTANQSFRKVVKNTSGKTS
Protocol: as §1
as §2, with “ROCK-I” for “PDGFRβ”, “30 μM […] (SEQ ID NO:222),” for “0.1 mg/ml poly(Glu, Tyr) 4:1, 10 mM MnCl2,”, “P30 filtermat” for “Filtermat A”

PKA(h) = PKA(h) (Homo sapiens, UniProt P17612); settings: read-out: percent residual activity of PKA(h)
Protocol: as §1
as §2, with “PKA” for “PDGFRβ”, “30 μM LRRASLG (SEQ ID NO:209) (Kemptide),” for “0.1 mg/ml poly(Glu, Tyr) 4:1, 10 mM MnCl2,”, “[y-33P-ATP]” for “[gamma-33P-ATP]”, “P30 filtermat” for “Filtermat A”, “50” for “75”

IRR(h) = IRR(h) (Homo sapiens, UniProt P14616); settings: read-out: percent residual activity of IRR(h)
Protocol: as §1
as §2, with “IRR” for “PDGFRβ”, “0.33” for “0.1”, “myelin basic protein,” for “poly(Glu, Tyr) 4:1, 10 mM MnCl2,”, “P30 filtermat” for “Filtermat A”

Met(h) = Met(h) (Homo sapiens, UniProt P08581); settings: read-out: percent residual activity of Met(h)
Chain of Met(h) (P08581 25-1390): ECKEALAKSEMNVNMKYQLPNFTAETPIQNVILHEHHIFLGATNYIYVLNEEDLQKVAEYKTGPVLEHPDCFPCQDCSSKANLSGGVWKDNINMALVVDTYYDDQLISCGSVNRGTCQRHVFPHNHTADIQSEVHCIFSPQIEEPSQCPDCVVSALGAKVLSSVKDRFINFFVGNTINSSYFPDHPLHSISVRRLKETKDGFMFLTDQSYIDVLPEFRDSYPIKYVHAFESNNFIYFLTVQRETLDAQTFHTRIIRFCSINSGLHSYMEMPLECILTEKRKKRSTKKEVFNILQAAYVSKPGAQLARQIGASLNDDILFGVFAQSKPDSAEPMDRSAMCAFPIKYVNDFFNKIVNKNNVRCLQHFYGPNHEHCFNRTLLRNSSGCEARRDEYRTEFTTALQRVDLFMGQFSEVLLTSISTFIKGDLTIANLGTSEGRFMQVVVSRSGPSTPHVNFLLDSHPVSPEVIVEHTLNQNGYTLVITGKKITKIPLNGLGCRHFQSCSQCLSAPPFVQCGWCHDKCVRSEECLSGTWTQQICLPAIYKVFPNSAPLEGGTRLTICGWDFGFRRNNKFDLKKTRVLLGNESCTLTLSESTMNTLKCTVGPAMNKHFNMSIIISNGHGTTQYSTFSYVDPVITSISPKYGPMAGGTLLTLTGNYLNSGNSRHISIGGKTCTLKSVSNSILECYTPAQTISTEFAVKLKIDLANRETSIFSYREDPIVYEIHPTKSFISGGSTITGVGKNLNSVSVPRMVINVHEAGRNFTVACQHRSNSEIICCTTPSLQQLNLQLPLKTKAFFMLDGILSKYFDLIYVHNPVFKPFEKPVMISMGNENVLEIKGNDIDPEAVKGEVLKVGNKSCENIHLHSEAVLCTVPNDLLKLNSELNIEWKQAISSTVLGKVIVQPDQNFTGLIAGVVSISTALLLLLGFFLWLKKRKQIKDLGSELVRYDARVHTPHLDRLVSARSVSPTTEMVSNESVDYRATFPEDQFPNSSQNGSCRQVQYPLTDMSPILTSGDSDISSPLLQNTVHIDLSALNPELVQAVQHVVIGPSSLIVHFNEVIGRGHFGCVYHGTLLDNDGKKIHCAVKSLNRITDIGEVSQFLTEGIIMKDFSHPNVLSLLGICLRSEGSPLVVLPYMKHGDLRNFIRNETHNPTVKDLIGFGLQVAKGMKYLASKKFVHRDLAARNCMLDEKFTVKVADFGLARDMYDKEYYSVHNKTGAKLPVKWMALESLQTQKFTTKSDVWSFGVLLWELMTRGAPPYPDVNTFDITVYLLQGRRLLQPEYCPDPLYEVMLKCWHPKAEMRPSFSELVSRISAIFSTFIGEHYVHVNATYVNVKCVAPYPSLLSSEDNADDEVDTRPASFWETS
Protocol: as §1
In a final reaction volume of 25 μl, Met (h) (5-10 mU) is incubated with 8 mM MOPS pH 7.0, 0.2 mM EDTA, 250 μM KKKSPGEYVNIEFG (SEQ ID NO:207), 10 mM MgAcetate and [y-33P-ATP] (specific activity approx. 500 cpm/pmol, concentration as required). The reaction is initiated by the addition of the MgATP mix. After incubation for 40 minutes at room temperature, the reaction is stopped by the addition of 5 μl of a 3% phosphoric acid solution. 10 μl of the reaction is then spotted onto a P30 filtermat and washed three times for 5 minutes in 75 mM phosphoric acid and once in methanol prior to a drying and scintillation counting.

Chain of JNK3(h) (P53779 whole entry): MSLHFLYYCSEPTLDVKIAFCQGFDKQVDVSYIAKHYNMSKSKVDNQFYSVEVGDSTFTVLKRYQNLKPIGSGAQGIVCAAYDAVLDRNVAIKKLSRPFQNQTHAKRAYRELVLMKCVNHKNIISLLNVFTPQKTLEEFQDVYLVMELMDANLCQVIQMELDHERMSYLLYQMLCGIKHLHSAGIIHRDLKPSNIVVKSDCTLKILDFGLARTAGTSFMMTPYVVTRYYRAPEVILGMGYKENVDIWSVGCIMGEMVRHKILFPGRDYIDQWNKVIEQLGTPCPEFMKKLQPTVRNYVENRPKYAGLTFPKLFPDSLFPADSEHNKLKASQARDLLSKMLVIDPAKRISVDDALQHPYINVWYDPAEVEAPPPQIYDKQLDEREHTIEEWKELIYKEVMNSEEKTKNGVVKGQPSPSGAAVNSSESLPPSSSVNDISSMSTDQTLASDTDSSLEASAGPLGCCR

Compound | remaining activity at 2.5 µM (JNK3(h)) [%] | remaining activity at 2.5 µM (PDGFRβ(h)) [%] | remaining activity at 2.5 µM (ROCK-I(h)) [%] | remaining activity at 2.5 µM (PKA(h)) [%] | remaining activity at 2.5 µM (IRR(h)) [%] | remaining activity at 2.5 µM (Met(h)) [%]
CN1CCCC1CCNC(=O)c1cn2c3c(c(N4CCC(c5cnccn5)C4)c(F)cc3c1=O)Oc1cc3ccccc3cc1-2 (stereo not drawn) [Compound A-1] | 97 | 103 | 91 | 105 | 97 | 132
CC(=O)N1CCN(c2ccc3c(=O)c(C(=O)NCCN4CCCC4)c4n(C)c5ccccc5n4c3n2)CC1 [Compound B-1] | 98 | 103 | 101 | 97 | 103 | 115
